According to PubChem BioAssay AID1963979 (Molecular Pharmacology Branch, DTP, NCI, 2024):

System: 361931-004-R-J1-PDC multicell spheroid viability
Assay: Anticancer human tumor 361931-004-R-J1-PDC patient-derived colon adenocarcinoma cell line growth inhibition [PI3K]
Settings: for IC50: curve of first compound; for viability, T/C: stronger effect = lower value
Outline: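 Tumor cells grown as multi-cell spheroids with HUVEC endothelial cells and MSC fibroblast-like stroma were treated with targeted agents combined with inavolisib, alpelisib, duvelisib or copanlisib. Doses fell in half-log steps from near clinical Cmax, else from 10 microM. Viability was measured.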

[1] = second compound 0.00316 µM, first compound 0.0316 µM
[2] = second compound 0.00316 µM, first compound 0.1 µM
[3] = second compound 0.00316 µM, first compound 0.316 µM
[4] = second compound 0.00316 µM, first compound 1 µM
[5] = second compound 0.00316 µM, first compound 3.16 µM
[6] = second compound 0.00316 µM, first compound 10 µM
[7] = second compound 0.01 µM, first compound 0.0316 µM
[8] = second compound 0.01 µM, first compound 0.1 µM
[9] = second compound 0.01 µM, first compound 0.316 µM
[10] = second compound 0.01 µM, first compound 1 µM
[11] = second compound 0.01 µM, first compound 3.16 µM
[12] = second compound 0.01 µM, first compound 10 µM
[13] = second compound 0.0316 µM, first compound 0.0316 µM
[14] = second compound 0.0316 µM, first compound 0.1 µM
[15] = second compound 0.0316 µM, first compound 0.316 µM
[16] = second compound 0.0316 µM, first compound 1 µM
[17] = second compound 0.0316 µM, first compound 3.16 µM
[18] = second compound 0.0316 µM, first compound 10 µM
[19] = second compound 0.1 µM, first compound 0.0316 µM
[20] = second compound 0.1 µM, first compound 0.1 µM
[21] = second compound 0.1 µM, first compound 0.316 µM
[22] = second compound 0.1 µM, first compound 1 µM
[23] = second compound 0.1 µM, first compound 3.16 µM
[24] = second compound 0.1 µM, first compound 10 µM
[25] = second compound 0.316 µM, first compound 0.0316 µM
[26] = second compound 0.316 µM, first compound 0.1 µM
[27] = second compound 0.316 µM, first compound 0.316 µM
[28] = second compound 0.316 µM, first compound 1 µM
[29] = second compound 0.316 µM, first compound 3.16 µM
[30] = second compound 0.316 µM, first compound 10 µM
[31] = second compound 1 µM, first compound 0.0316 µM
[32] = second compound 1 µM, first compound 0.1 µM
[33] = second compound 1 µM, first compound 0.316 µM
[34] = second compound 1 µM, first compound 1 µM
[35] = second compound 1 µM, first compound 3.16 µM
[36] = second compound 1 µM, first compound 10 µM
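Further: spheroids exposed to agents for seven days before readout.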

`CC(C)NCC(C(=O)N1CCN(c2ncnc3c2C(C)CC3O)CC1)c1ccc(Cl)cc1` (stereo unspecified) + CC(Nc1ccc2c(c1)OCCn1cc(N3C(=O)OCC3C(F)F)nc1-2)C(N)=O was tested, and the IC50 (second compound 0.00316 µM) was 1270 nM, the IC50 (second compound 0.01 µM) was 1240 nM and the IC50 (second compound 0.0316 µM) was 906 nM. It also gave an IC50 (second compound 0.1 µM) of 1360 nM, an IC50 (second compound 0.316 µM) of 1040 nM and an IC50 (second compound 1 µM) of 1090 nM. For the same compound, the viability, T/C [1] was 93.3%, the viability, T/C [2] was 99% and the viability, T/C [3] was 78.1%. For the same compound, the viability, T/C [4] was 55.2%, the viability, T/C [5] was 31.6% and the viability, T/C [6] was 18.9%. The viability, T/C [7] was 105%, the viability, T/C [8] was 92.9% and the viability, T/C [9] was 75.9%. The viability, T/C [10] was 55.3%, the viability, T/C [11] was 31.8% and the viability, T/C [12] was 19.9%. It also gave a viability, T/C [13] of 97.9%, a viability, T/C [14] of 96.6% and a viability, T/C [15] of 76%. For the same compound, the viability, T/C [16] was 46.4%, the viability, T/C [17] was 30.2% and the viability, T/C [18] was 18.8%. It also gave a viability, T/C [19] of 101%, a viability, T/C [20] of 95% and a viability, T/C [21] of 71.2%. For the same compound, the viability, T/C [22] was 50.9%, the viability, T/C [23] was 41.8% and the viability, T/C [24] was 18.3%. For the same compound, the viability, T/C [25] was 90.5%, the viability, T/C [26] was 77.4% and the viability, T/C [27] was 74%. For the same compound, the viability, T/C [28] was 51.2%, the viability, T/C [29] was 28.6% and the viability, T/C [30] was 20.7%. The viability, T/C [31] was 72.3%, the viability, T/C [32] was 71.1% and the viability, T/C [33] was 68.9%. The viability, T/C [34] was 51.7%, the viability, T/C [35] was 25.3% and the viability, T/C [36] was 15.3%.
`C=CC(=O)N1CCN(c2nc(=O)n(-c3c(C)ccnc3C(C)C)c3nc(-c4c(O)cccc4F)c(F)cc23)C(C)C1` (stereo unspecified) + COc1c(OCCCN2CCOCC2)ccc2c3n(c(=NC(=O)c4cnc(N)nc4)nc12)CCN3 gave an IC50 (second compound 0.00316 µM) of over 10000 nM, an IC50 (second compound 0.01 µM) of over 10000 nM and an IC50 (second compound 0.0316 µM) of over 10000 nM. It also gave an IC50 (second compound 0.1 µM) of over 10000 nM, an IC50 (second compound 0.316 µM) of 31.6 nM and an IC50 (second compound 1 µM) of under 31.6 nM. The viability, T/C [1] was 97.7%, the viability, T/C [2] was 100% and the viability, T/C [3] was 100%. It also gave a viability, T/C [4] of 98.7%, a viability, T/C [5] of 99.9% and a viability, T/C [6] of 90.1%. It also gave a viability, T/C [7] of 98%, a viability, T/C [8] of 95% and a viability, T/C [9] of 92.6%. For the same compound, the viability, T/C [10] was 94.4%, the viability, T/C [11] was 103% and the viability, T/C [12] was 89%. For the same compound, the viability, T/C [13] was 94.6%, the viability, T/C [14] was 89.5% and the viability, T/C [15] was 90.6%. It also gave a viability, T/C [16] of 94.7%, a viability, T/C [17] of 91.6% and a viability, T/C [18] of 82.4%. The viability, T/C [19] was 83.8%, the viability, T/C [20] was 80.3% and the viability, T/C [21] was 77.8%. The viability, T/C [22] was 76%, the viability, T/C [23] was 78.8% and the viability, T/C [24] was 54.9%. It also gave a viability, T/C [25] of 48.7%, a viability, T/C [26] of 49.8% and a viability, T/C [27] of 47.1%. For the same compound, the viability, T/C [28] was 39.5%, the viability, T/C [29] was 51.1% and the viability, T/C [30] was 32.8%. The viability, T/C [31] was 20.4%, the viability, T/C [32] was 22.1% and the viability, T/C [33] was 15.4%. The viability, T/C [34] was 20.2%, the viability, T/C [35] was 18.3% and the viability, T/C [36] was 12.4%.
`CCN1CCN(Cc2ccc(Nc3ncc(F)c(-c4cc(F)c5nc(C)n(C(C)C)c5c4)n3)nc2)CC1` + COc1c(OCCCN2CCOCC2)ccc2c3n(c(=NC(=O)c4cnc(N)nc4)nc12)CCN3 gave an IC50 (second compound 0.00316 µM) of over 1000 nM, an IC50 (second compound 0.01 µM) of over 1000 nM and an IC50 (second compound 0.0316 µM) of 864 nM. The IC50 (second compound 0.1 µM) was 223 nM, the IC50 (second compound 0.316 µM) was under 3.16 nM and the IC50 (second compound 1 µM) was under 3.16 nM. The viability, T/C (second compound 0.00316 µM, first compound 0.00316 µM) was 92.3%, the viability, T/C (second compound 0.00316 µM, first compound 0.01 µM) was 101% and the viability, T/C [1] was 103%. For the same compound, the viability, T/C [2] was 103%, the viability, T/C [3] was 94.6% and the viability, T/C [4] was 87.6%. For the same compound, the viability, T/C (second compound 0.01 µM, first compound 0.00316 µM) was 100%, the viability, T/C (second compound 0.01 µM, first compound 0.01 µM) was 95.1% and the viability, T/C [7] was 94.4%. For the same compound, the viability, T/C [8] was 85%, the viability, T/C [9] was 77.2% and the viability, T/C [10] was 64.5%. The viability, T/C (second compound 0.0316 µM, first compound 0.00316 µM) was 86.7%, the viability, T/C (second compound 0.0316 µM, first compound 0.01 µM) was 91.3% and the viability, T/C [13] was 80.7%. The viability, T/C [14] was 73.5%, the viability, T/C [15] was 62.3% and the viability, T/C [16] was 48.1%. The viability, T/C (second compound 0.1 µM, first compound 0.00316 µM) was 80.8%, the viability, T/C (second compound 0.1 µM, first compound 0.01 µM) was 74.3% and the viability, T/C [19] was 60.3%. It also gave a viability, T/C [20] of 54.3%, a viability, T/C [21] of 51.2% and a viability, T/C [22] of 39.9%. For the same compound, the viability, T/C (second compound 0.316 µM, first compound 0.00316 µM) was 50%, the viability, T/C (second compound 0.316 µM, first compound 0.01 µM) was 44.7% and the viability, T/C [25] was 43.2%. The viability, T/C [26] was 39.7%, the viability, T/C [27] was 39% and the viability, T/C [28] was 39.9%. For the same compound, the viability, T/C (second compound 1 µM, first compound 0.00316 µM) was 22.7%, the viability, T/C (second compound 1 µM, first compound 0.01 µM) was 21.8% and the viability, T/C [31] was 18.7%. The viability, T/C [32] was 22.2%, the viability, T/C [33] was 30.3% and the viability, T/C [34] was 32.1%.
